Laboratory results as given in patent US11299472B2, “Fumarate salt of (R)-3-(1-(2,3-dichloro-4-(pyrazin-2-yl)phenyl)-2,2,2- trifluoroethyl)-1-methyl-1-(1-methylpiperidin-4-yl) urea, methods of preparation, and uses thereof” (Helsinn Healthcare SA, priority 2017, dated 2022).

Legend:
[1] = Rat pharmacokinetic study, single oral HM04 fumarate salt 3, 10, 30 mg/kg (Example 10); type: in vivo, male Sprague Dawley rats; conditions: for concentration at 0.5 h: 0.50 hours
Procedure: (§1) The pharmacokinetics of HM04 in plasma after single oral administration of HM04 fumarate salt to 6-week old male Sprague Dawley rats and male Beagle dogs (1-5 years of age) was investigated. Test formulations of 0.6 mg/mL, 2 mg/mL, and 6 mg/mL HM04 fumarate salt (based on weight of the free base) were prepared in 5% glucose solution. Doses of 3, 10, and 30 mg/kg HM04 fumarate salt (based on weight of the free base) were administered by gastric gavage as a 5 mL/kg dose volume of each of the three test formulations. Four animals were in each dose group. The formulation was administered to the dogs in fasting conditions with food provided three hours post-dosing.
A comparison of the plasma concentration of HM04 (ng/mL) in rats over time is provided in FIG. 19 and a summary of the pharmacokinetic analysis is provided in Table 5, below. […] The standard deviation associated with the mean oral bioavailability was calculated according to the formula: SDq=[^2√{square root over ((my^2·SDx^2+mx^2−SDy^2))}]/my^2 where q=mean bioavailability; mx=oral dose-normalized mean AUC, and my=IV dose-normalized mean AUC.
(§2) Plasma HM04 concentrations were measured by LC-MS/MS following protein precipitation in the 96-well plate format. At the time of analysis samples were thawed out at ambient temperature. Aliquots of 25 μL of rat or dog K3EDTA plasma were spiked with 300 μL of internal standard (25 ng/mL of HM04-d8 in acetonitrile). After gentle vortex mixing for 5 minutes and centrifugation at 2010 g for 15 minutes at 4° C., an aliquot of 100 μL of the organic phase was transferred into a fresh 96-well polypropylene plate, using a P3-Evolution robotic system (Perkin Elmer). Following dilution with 100 μL of […] ammonium formate pH 3.5, an aliquot of 10 μL was injected into the LC-MS/MS system.

[2] = Dog pharmacokinetic study, single oral HM04 fumarate salt 3, 10, 30 mg/kg (Example 10); type: in vivo, male Beagle dogs
Procedure: as §1
Oral absolute bioavailability at 3 mg/kg was calculated from the ratio of individual oral AUC∞ to the individual AUC∞ values determined following intravenous administration of 3 mg/kg HM04 fumarate salt (based on weight of the free base) to the same four male Beagle dogs.
Oral absolute bioavailability at 10 mg/kg was calculated from the ratio of individual oral AUC∞ to the individual AUC∞ values determined following intravenous administration of 10 mg/kg HM04 fumarate salt (based on weight of the free base) to the same four male Beagle dogs.
as §2

[3] = male, Sprague Dawley, plasma, 3 mg/kg oral, n=4
[4] = male, Sprague Dawley, plasma, 10 mg/kg oral, n=4
[5] = male, Sprague Dawley, plasma, 10 mg/kg oral, N = 3
[6] = male, Sprague Dawley, plasma, 30 mg/kg oral, n=4

SMILES: CN1CCC(N(C)C(=O)N[C@H](c2ccc(-c3cnccn3)c(Cl)c2Cl)C(F)(F)F)CC1.O=C(O)/C=C/C(=O)O [HM04 fumarate salt, (R)-3-(1-(2,3-dichloro-4-(pyrazin-2-yl)phenyl)-2,2,2-trifluoroethyl)-1-methyl-1-(1-methylpiperidin-4-yl)urea fumarate salt]
- HM04 plasma concentration ([1]; 3 mg/kg oral, 24 hours, n=4, LLOQ 5.0 ng/mL): BLQ
- bioavailability ([1]; male, Sprague Dawley, plasma, 3 mg/kg oral vs 3 mg/kg intravenous mean AUC): 43.3 ± 10.5%
- concentration at 0.25 h [1, 3]: 34.7 ± 5.42 ng/mL
- concentration at 0.5 h [1, 3]: 64.2 ± 35 ng/mL
- concentration at 1 h [1, 3]: 82.4 ± 30.8 ng/mL
- concentration at 2 h [1, 3]: 150 ± 53.5 ng/mL
- concentration at 4 h [1, 3]: 116 ± 24 ng/mL
- concentration at 8 h [1, 3]: 47 ± 10.9 ng/mL
- half-life ([1]; male, Sprague Dawley, plasma, 3 mg/kg oral, N = 2): 2.82 h
- AUC(0-t) [1, 3]: 762 ± 164 ng·h/mL
- Cmax [1, 3]: 156 ± 47.3 ng/mL
- Tmax [1, 3]: 3 ± 1.15 h
- AUC ([1]; male, Sprague Dawley, plasma, 10 mg/kg intravenous, four rats, read-out: mean AUC following intravenous administration): 6170 ± 1770 ng·h/mL
- bioavailability ([1]; male, Sprague Dawley, plasma, 10 mg/kg oral vs 10 mg/kg intravenous mean AUC): 54.4 ± 15.2%
- concentration at 0.25 h [1, 4]: 150 ± 28.5 ng/mL
- concentration at 0.5 h [1, 4]: 548 ± 603 ng/mL
- concentration at 1 h [1, 4]: 456 ± 100 ng/mL
- concentration at 2 h [1, 4]: 652 ± 62.1 ng/mL
- concentration at 4 h [1, 4]: 387 ± 134 ng/mL
- concentration at 8 h [1, 4]: 215 ± 97.3 ng/mL
- concentration at 24 h ([1]; male, Sprague Dawley, plasma, 10 mg/kg oral, 24 hours, N = 1, three of four animals below level of quantification): 8.73 ± 17.5 ng/mL
- AUC(0-t) [1, 5]: 3360 ± 685 ng·h/mL
- half-life [1, 5]: 4.88 h
- Cmax [1, 4]: 769 ± 458 ng/mL
- Tmax [1, 4]: 1.38 ± 0.75 h
- concentration at 0.25 h [1, 6]: 950 ± 465 ng/mL
- concentration at 0.5 h [1, 6]: 1400 ± 961 ng/mL
- concentration at 1 h [1, 6]: 2290 ± 537 ng/mL
- concentration at 2 h [1, 6]: 2560 ± 530 ng/mL
- concentration at 4 h [1, 6]: 2120 ± 422 ng/mL
- concentration at 8 h [1, 6]: 1350 ± 179 ng/mL
- concentration at 24 h ([1]; male, Sprague Dawley, plasma, 30 mg/kg oral, 24 hours, n=4): 14.6 ± 6.8 ng/mL
- AUC(0-t) [1, 6]: 26200 ± 3970 ng·h/mL
- Cmax [1, 6]: 2590 ± 524 ng/mL
- Tmax [1, 6]: 1.75 ± 0.5 h
- half-life [1, 6]: 2.65 ± 0.193 h
- clearance [2]: low clearance
- oral bioavailability [2]: high
- HM04 plasma concentration ([2]; 30 mg/kg oral, 0 hours (pre-dose), n=4, LLOQ 2.5 ng/mL): BLQ
- bioavailability ([2]; male, Beagle, plasma, 3 mg/kg oral vs 3 mg/kg intravenous, individual AUC∞ ratios): 55.6 ± 18.8%
- concentration at 0 h ([2]; male, Beagle, plasma, 3 mg/kg oral, 0 hours (pre-dose), n=4): 5.34 ± 3.83 ng/mL
- concentration at 0.25 h ([2]; male, Beagle, plasma, 3 mg/kg oral, 0.25 hours, n=4): 66 ± 26.8 ng/mL
- concentration at 0.5 h ([2]; male, Beagle, plasma, 3 mg/kg oral, 0.50 hours, n=4): 360 ± 238 ng/mL
- concentration at 1 h ([2]; male, Beagle, plasma, 3 mg/kg oral, 1 hour, n=4): 300 ± 127 ng/mL
- concentration at 2 h ([2]; male, Beagle, plasma, 3 mg/kg oral, 2 hours, N = 3 (Dog 3 excluded as outlier)): 287 ± 158 ng/mL
- concentration at 4 h ([2]; male, Beagle, plasma, 3 mg/kg oral, 4 hours, n=4): 185 ± 115 ng/mL
- concentration at 8 h ([2]; male, Beagle, plasma, 3 mg/kg oral, 8 hours, n=4): 95.6 ± 83.3 ng/mL
- concentration at 24 h ([2]; male, Beagle, plasma, 3 mg/kg oral, 24 hours, n=4): 8.83 ± 14.7 ng/mL
